This data set has as its system CCRIS mutagenicity, Ames/micronucleus/aberration tests. Put plainly: CCRIS mutagenicity studies.
Where [1] appears, read: Test System: AMES SALMONELLA TYPHIMURIUM, Strain/Indicator: TA98, Metabolic Activation: NONE, Method: STANDARD PLATE.
Where [2] appears, read: Test System: AMES SALMONELLA TYPHIMURIUM, Strain/Indicator: TA100, Metabolic Activation: NONE, Method: STANDARD PLATE.
Setting [3] is: Test System: AMES SALMONELLA TYPHIMURIUM, Strain/Indicator: TA98, Metabolic Activation: NONE, Method: PREINCUBATION
[4] abbreviates: Test System: AMES SALMONELLA TYPHIMURIUM, Strain/Indicator: TA100, Metabolic Activation: NONE, Method: PREINCUBATION

The source made the active and inactive calls. No rule for the calls is given here.

Consider `CC(C)CCC[C@@H](C)[C@H]1CC[C@H]2[C@@H]3C(=O)C=C4C[C@@H](O)CC[C@]4(C)[C@H]3CC[C@]12C`, for which the mutagenic call was “inactive; negative” (Test System: AMES SALMONELLA TYPHIMURIUM, Strain/Indicator: TA97, Metabolic Activation: NONE, Method: STANDARD PLATE); “inactive; negative” under setting [1]; “inactive; negative” under setting [2]; “inactive; negative” (Test System: AMES SALMONELLA TYPHIMURIUM, Strain/Indicator: TA102, Metabolic Activation: NONE, Method: STANDARD PLATE); “inactive; negative” (Test System: AMES SALMONELLA TYPHIMURIUM, Strain/Indicator: TA1535, Metabolic Activation: NONE, Method: STANDARD PLATE).

Turning to `Cc1c2ccccc2c2ccc3cccc4ccc1c2c43`, the mutagenic call runs as follows: (Test System: AMES SALMONELLA TYPHIMURIUM, Strain/Indicator: TA100, Metabolic Activation: RAT, NADPH-FORTIFIED HOMOGENIZED HEPATOCYTES, AROCLOR 1254, Method: PREINCUBATION) “active; positive”; (Test System: CHINESE HAMSTER V-79, Strain/Indicator: V-79/8-AZAGUANINE, Metabolic Activation: HAMSTER, EMBRYO, CELL-MEDIATED, Method: STANDARD PLATE) “active; positive”.

As to `Cc1ccc(N)c(O)c1`, the mutagenic call is “inactive; negative” (Test System: AMES SALMONELLA TYPHIMURIUM, Strain/Indicator: TA98, Metabolic Activation: HAMSTER LIVER S-9, AROCLOR 1254, Method: STANDARD PLATE); “inactive; negative” under setting [1]; “inactive; negative” (Test System: AMES SALMONELLA TYPHIMURIUM, Strain/Indicator: TA98, Metabolic Activation: RAT LIVER S-9, AROCLOR 1254, Method: STANDARD PLATE); “inactive; negative” (Test System: AMES SALMONELLA TYPHIMURIUM, Strain/Indicator: TA100, Metabolic Activation: HAMSTER LIVER S-9, AROCLOR 1254, Method: STANDARD PLATE); “active; positive” under setting [2]; “inactive; negative” (Test System: AMES SALMONELLA TYPHIMURIUM, Strain/Indicator: TA100, Metabolic Activation: RAT LIVER S-9, AROCLOR 1254, Method: STANDARD PLATE). The mutagenic call is “active; positive. reevaluation of results: positive” (Test System: MOUSE LYMPHOMA, Strain/Indicator: L5178Y (TK+/TK-), Metabolic Activation: NONE, Method: SUSPENSION/PLATE) and “active; positive. reevaluation of results: equivocal” (Test System: MOUSE LYMPHOMA, Strain/Indicator: L5178Y (TK+/TK-), Metabolic Activation: RAT, LIVER, S-9, AROCLOR 1254, Method: SUSPENSION/PLATE).

As to `NC(=O)C1(C(N)=O)OC1C(=O)c1ccccc1` (configuration not stated), the mutagenic call runs as follows: (Test System: AMES SALMONELLA TYPHIMURIUM, Strain/Indicator: TA98, Metabolic Activation: NONE, Method: DISK ASSAY) “inactive; negative”; under setting [1], “inactive; negative”; (Test System: AMES SALMONELLA TYPHIMURIUM, Strain/Indicator: TA98, Metabolic Activation: RAT, LIVER, S-9, AROCLOR 1254, Method: DISK ASSAY) “inactive; negative”; (Test System: AMES SALMONELLA TYPHIMURIUM, Strain/Indicator: TA98, Metabolic Activation: RAT, LIVER, S-9, AROCLOR 1254, Method: STANDARD PLATE) “active; positive”; under setting [2], “inactive; negative”; (Test System: AMES SALMONELLA TYPHIMURIUM, Strain/Indicator: TA100, Metabolic Activation: RAT, LIVER, S-9, AROCLOR 1254, Method: STANDARD PLATE) “inactive; negative”.

Turning to `Cc1cnc2ccc3c(ncn3C)c2n1`, the mutagenic call was “inactive; negative” under setting [3]; “inactive; negative” (Test System: AMES SALMONELLA TYPHIMURIUM, Strain/Indicator: TA98, Metabolic Activation: RAT, LIVER, S-9, AROCLOR 1254, Method: PREINCUBATION); “inactive; negative” under setting [4]; “inactive; negative” (Test System: AMES SALMONELLA TYPHIMURIUM, Strain/Indicator: TA100, Metabolic Activation: RAT, LIVER, S-9, AROCLOR 1254, Method: PREINCUBATION).

Turning to `CO/N=C(\C(=O)N[C@@H]1C(=O)N2C(C(=O)OCOC(=O)C(C)(C)C)=C(/C=C\c3scnc3C)CS[C@H]12)c1csc(N)n1`, the mutagenic call under setting [3] is “inactive; negative”; the mutagenic call (Test System: AMES SALMONELLA TYPHIMURIUM, Strain/Indicator: TA98, Metabolic Activation: RAT, LIVER, S-9, PHENOBARBITAL AND 5,6-BENZOFLAVONE, Method: PREINCUBATION) was “inactive; negative”; the mutagenic call under setting [4] was “inactive; negative”; the mutagenic call (Test System: AMES SALMONELLA TYPHIMURIUM, Strain/Indicator: TA100, Metabolic Activation: RAT, LIVER, S-9, PHENOBARBITAL AND 5,6-BENZOFLAVONE, Method: PREINCUBATION) is “inactive; negative”; the mutagenic call (Test System: AMES SALMONELLA TYPHIMURIUM, Strain/Indicator: TA1535, Metabolic Activation: NONE, Method: PREINCUBATION) is “inactive; negative”; the mutagenic call (Test System: AMES SALMONELLA TYPHIMURIUM, Strain/Indicator: TA1535, Metabolic Activation: RAT, LIVER, S-9, PHENOBARBITAL AND 5,6-BENZOFLAVONE, Method: PREINCUBATION) was “inactive; negative”. For the same compound, the mutagenic call was “inactive; negative” (Test System: AMES SALMONELLA TYPHIMURIUM, Strain/Indicator: TA1537, Metabolic Activation: NONE, Method: PREINCUBATION); “inactive; negative” (Test System: AMES SALMONELLA TYPHIMURIUM, Strain/Indicator: TA1537, Metabolic Activation: RAT, LIVER, S-9, PHENOBARBITAL AND 5,6-BENZOFLAVONE, Method: PREINCUBATION); “inactive; negative” (Test System: AMES SALMONELLA TYPHIMURIUM, Strain/Indicator: TA1538, Metabolic Activation: NONE, Method: PREINCUBATION); “inactive; negative” (Test System: AMES SALMONELLA TYPHIMURIUM, Strain/Indicator: TA1538, Metabolic Activation: RAT, LIVER, S-9, PHENOBARBITAL AND 5,6-BENZOFLAVONE, Method: PREINCUBATION); “inactive; negative” (Test System: E. COLI, Strain/Indicator: WP2 UVRA, Metabolic Activation: NONE, Method: PREINCUBATION); “inactive; negative” (Test System: E. COLI, Strain/Indicator: WP2 UVRA, Metabolic Activation: RAT, LIVER, S-9, PHENOBARBITAL AND 5,6-BENZOFLAVONE, Method: PREINCUBATION). Besides, the mutagenic call is “inactive; negative” (Test System: MOUSE LYMPHOMA, Strain/Indicator: L5178Y (TK+/TK-), Metabolic Activation: NONE); “inactive; negative” (Test System: MOUSE LYMPHOMA, Strain/Indicator: L5178Y (TK+/TK-), Metabolic Activation: RAT, LIVER, S-9, PHENOBARBITAL AND 5,6-BENZOFLAVONE); “inactive; negative” (Test System: UDS RAT STOMACH MUCOSA CELLS, Strain/Indicator: THY INCORP, Metabolic Activation: NONE, Method: IN VIVO-IN VITRO).

As for `Cc1ccc(N(CCO)CCO)cc1`, the mutagenic call reads like this: (Test System: AMES SALMONELLA TYPHIMURIUM, Strain/Indicator: TA1535, Metabolic Activation: RAT, LIVER, S-9, AROCLOR 1254 (2.5%), Method: PREINCUBATION) “active; positive”; (Test System: Mouse lymphoma, Strain/Indicator: L5178Y (tk+/tk-), Metabolic Activation: None, Method: Suspension/plate) “inactive; negative”; (Test System: Mouse lymphoma, Strain/Indicator: L5178Y (tk+/tk-), Metabolic Activation: Rat, Liver, S-9, Aroclor 1254, Method: Suspension/plate) “inconclusive (previous evaluation equivocal)”.

`Nc1ccc(Oc2cccc(Oc3ccc(N)cc3)c2)cc1`: the mutagenic call reads like this: under setting [3], “inactive; negative”; (Test System: AMES SALMONELLA TYPHIMURIUM, Strain/Indicator: TA98, Metabolic Activation: RAT, LIVER, S-9, PCB, Method: PREINCUBATION) “active; positive”; under setting [4], “inactive; negative”; (Test System: AMES SALMONELLA TYPHIMURIUM, Strain/Indicator: TA100, Metabolic Activation: RAT, LIVER, S-9, PCB, Method: PREINCUBATION) “active; positive”.

Values taken from PubChem BioAssay AID1259407 (Chemical Carcinogenesis Research Information System (CCRIS), 2018).
